Assay results published in article PMC4331650 (Biochimica et Biophysica Acta, 2014).
Where a chain is given by its changes, count along the chain named. Entries after “also recorded” stand apart in the source; their conditions may differ.

Legend:
human CLC-Ks = details: HEK293 cells; all concentrations tested, from 0.3 to 2000 μM; cited from earlier work
CLC-K1/barttin = molecular target: T1, CLC-K1/barttin (Rattus norvegicus, UniProt Q06393); experiment: NFA effect on WT CLC-K1/barttin, voltage clamp in Xenopus oocytes; format: cell-based
T1 sequence (Q06393 1-687): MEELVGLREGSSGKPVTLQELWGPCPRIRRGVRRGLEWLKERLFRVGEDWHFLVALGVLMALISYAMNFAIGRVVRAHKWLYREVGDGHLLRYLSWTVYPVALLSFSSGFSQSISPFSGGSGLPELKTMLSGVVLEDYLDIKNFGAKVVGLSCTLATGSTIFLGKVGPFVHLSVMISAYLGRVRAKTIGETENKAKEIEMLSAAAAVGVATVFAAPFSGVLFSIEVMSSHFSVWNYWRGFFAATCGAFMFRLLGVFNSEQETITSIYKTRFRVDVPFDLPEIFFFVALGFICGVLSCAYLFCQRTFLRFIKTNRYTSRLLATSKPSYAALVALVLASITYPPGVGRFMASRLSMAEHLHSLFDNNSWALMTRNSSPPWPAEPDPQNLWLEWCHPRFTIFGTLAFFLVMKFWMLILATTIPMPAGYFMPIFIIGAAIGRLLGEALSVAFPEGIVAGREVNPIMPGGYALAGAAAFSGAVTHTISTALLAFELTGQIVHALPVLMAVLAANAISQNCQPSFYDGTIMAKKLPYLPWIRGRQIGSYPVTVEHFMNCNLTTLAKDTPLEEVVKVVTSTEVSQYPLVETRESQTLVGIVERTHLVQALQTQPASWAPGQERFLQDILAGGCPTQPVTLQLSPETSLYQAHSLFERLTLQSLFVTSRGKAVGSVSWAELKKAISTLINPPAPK
T1 sequence (Q8WZ55 1-320 Y98A partner): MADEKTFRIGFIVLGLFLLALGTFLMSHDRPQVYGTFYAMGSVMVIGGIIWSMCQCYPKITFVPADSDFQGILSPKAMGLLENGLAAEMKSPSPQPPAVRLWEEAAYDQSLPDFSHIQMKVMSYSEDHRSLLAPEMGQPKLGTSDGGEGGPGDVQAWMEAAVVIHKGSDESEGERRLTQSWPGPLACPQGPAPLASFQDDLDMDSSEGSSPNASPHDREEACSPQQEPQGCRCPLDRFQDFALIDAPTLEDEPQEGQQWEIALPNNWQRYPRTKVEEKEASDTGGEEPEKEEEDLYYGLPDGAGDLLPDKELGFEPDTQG

N257A CLC-K1 = molecular target: T2, N257A CLC-K1 (Rattus norvegicus, UniProt Q06393, N257A); experiment: NFA effect on N257A CLC-K1 without barttin, voltage clamp in Xenopus oocytes; format: cell-based; details: 200 μM NFA
T2 sequence (Q06393 1-687 N257A): T1 sequence (Q06393 1-687) with N257A

hCLC-Kb = details: [NFA]ext up to 2 mM; cited from earlier work
rat CLC-K1 = details: all concentrations tested; cited from earlier work
N257A CLC-Ka = molecular target: T3, N257A CLC-Ka (Homo sapiens, UniProt P51800, N257A); experiment: NFA effect on N257A CLC-Ka currents, voltage clamp in Xenopus oocytes; format: cell-based
T3 sequence (P51800 1-687 N257A): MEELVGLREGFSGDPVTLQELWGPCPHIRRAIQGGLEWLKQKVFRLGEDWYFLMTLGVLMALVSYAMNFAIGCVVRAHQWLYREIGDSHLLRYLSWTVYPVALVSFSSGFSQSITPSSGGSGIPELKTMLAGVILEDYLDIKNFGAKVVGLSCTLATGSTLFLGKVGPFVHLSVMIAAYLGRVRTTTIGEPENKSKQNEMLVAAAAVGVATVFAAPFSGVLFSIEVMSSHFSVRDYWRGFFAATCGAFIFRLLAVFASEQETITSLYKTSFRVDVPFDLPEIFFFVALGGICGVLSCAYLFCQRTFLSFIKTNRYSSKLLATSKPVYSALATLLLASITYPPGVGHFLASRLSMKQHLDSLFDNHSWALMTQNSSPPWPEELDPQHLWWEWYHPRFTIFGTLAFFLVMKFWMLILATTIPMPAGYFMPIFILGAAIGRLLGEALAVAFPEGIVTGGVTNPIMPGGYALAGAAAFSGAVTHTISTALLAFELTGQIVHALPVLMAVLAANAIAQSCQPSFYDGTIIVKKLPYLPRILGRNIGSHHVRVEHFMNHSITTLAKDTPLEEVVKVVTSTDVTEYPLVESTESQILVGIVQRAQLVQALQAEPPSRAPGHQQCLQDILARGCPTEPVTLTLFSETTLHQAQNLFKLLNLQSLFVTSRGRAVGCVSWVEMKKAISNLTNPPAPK
T3 sequence (Q8WZ55 1-320 Y98A partner): T1 sequence (Q8WZ55 1-320 Y98A partner)

O=C(O)c1cccnc1Nc1cccc(C(F)(F)F)c1 [NFA, niflumic acid]
effect of NFA on currents (human CLC-Ks): inhibited; also recorded: no longer potentiated | currents relative to control conditions (CLC-K1/barttin; 10 μM NFA): about 80% | currents relative to control conditions (CLC-K1/barttin; 200 μM NFA): ~45% | sensitivity to NFA compared with WT (N257A CLC-K1): only weakly more sensitive | effect on hCLC-Kb (hCLC-Kb): potentiated | effect on rat CLC-K1 (rat CLC-K1): blocked | effect of NFA on currents (N257A CLC-Ka; all [NFA]ext tested, from 1 to 2000 μM): only blocked | inhibition at 5 µM (N257A CLC-Ka; read-out: inhibition of currents): ~90%
